Assay results: article PMC12470716, “Inhibitory Effect of Fucoidan Analogs on Highly Metastatic Gastric Cancer Cells via Galectin-4 Inhibition” (International Journal of Molecular Sciences, 2025)

How the values were obtained:
galectin-4 = molecular target: T1, galectin-4 (Homo sapiens, UniProt P56470); test: SPR (Biacore X100, galectin-4 immobilised on CM5), multi cycle; conditions: 25 °C, HBS-EP pH 7.4; LNT 31.3–500 μM; read-out: equilibrium binding constant
T1 construct: gene LGALS4; full-length, His-tagged (pQE-9), E. coli M15[pREP4], TALON purified; two CRDs (N-CRD and C-CRD), approx. 36 kDa; amine-coupled on CM5 chip for SPR
T1 sequence (P56470 1-323): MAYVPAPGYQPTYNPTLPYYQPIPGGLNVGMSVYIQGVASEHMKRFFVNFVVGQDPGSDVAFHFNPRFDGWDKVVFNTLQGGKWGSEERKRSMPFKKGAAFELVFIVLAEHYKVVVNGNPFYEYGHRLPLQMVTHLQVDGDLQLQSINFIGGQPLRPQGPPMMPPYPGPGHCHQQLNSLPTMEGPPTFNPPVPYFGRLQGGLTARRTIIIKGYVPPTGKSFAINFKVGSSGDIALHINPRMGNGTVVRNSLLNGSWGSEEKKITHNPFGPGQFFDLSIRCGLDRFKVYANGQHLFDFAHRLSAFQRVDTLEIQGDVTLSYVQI

MKN45 = test: cells; design: ATP-based cell viability assay, growth inhibition of MKN45 in FCS-free medium, 3 days; conditions: Homo sapiens, MKN-45, 72 h; read-out: Growth inhibition (IC50) MKN45
Method: For growth inhibition experiments, MKN45 or NUGC4 cells were grown in 96-well plates at 5 × 10^3/well on the previous day, and the cell supernatant was discarded and washed once with phosphate-buffered saline (PBS). Fucoidan or fucoidan analog solutions diluted in FCS-free Advanced RPMI 1640 medium were added to the cells and cultured for another 3 days. Cell proliferation was measured using the ATP-based cell viability assay. We first measured the inhibitory activities of all synthesized fucoidan analogs 1–14 to narrow down the candidate. […] Next, the inhibitory activity of fucoidan analogs on the proliferation of MKN45 cells was measured (Figure 3A). […] From the viewpoint of growth and binding inhibitory activities, we narrowed it down to 2, 3, 10, 12, and 14 for further investigation.

NUGC4 WT = test: cells; design: ATP-based cell viability assay, growth inhibition of wild-type NUGC4 in FCS-free medium, 3 days; conditions: Homo sapiens, NUGC-4, 72 h; read-out: Growth inhibition (IC50) NUGC4 WT
Method: For growth inhibition experiments, MKN45 or NUGC4 cells were grown in 96-well plates at 5 × 10^3/well on the previous day, and the cell supernatant was discarded and washed once with phosphate-buffered saline (PBS). Fucoidan or fucoidan analog solutions diluted in FCS-free Advanced RPMI 1640 medium were added to the cells and cultured for another 3 days. Cell proliferation was measured using the ATP-based cell viability assay. Fucoidan analogs inhibited the proliferative ability of NUGC4 cells, but minimal inhibitory activity was observed against KO cells (Figure 3B).

Row | SMILES | Kd (galectin-4) | IC50 (MKN45) | IC50 (NUGC4 WT)
1 | CC(=O)N[C@H]1[C@H](O[C@H]2[C@@H](O)[C@@H](CO)O[C@@H](O[C@H]3[C@H](O)[C@@H](O)C(O)O[C@@H]3CO)[C@@H]2O)O[C@H](CO)[C@@H](O)[C@@H]1O[C@@H]1O[C@H](CO)[C@H](O)[C@H](O)[C@H]1O (some centres unmarked) [LNT] | 200 µM |  | 
2 | CCCCCCCCOC1O[C@@H](C)[C@@H](O)[C@@H](O[C@@H]2O[C@@H](C)[C@@H](O)[C@@H](O[C@@H]3O[C@@H](C)[C@@H](O)[C@@H](O[C@@H]4O[C@@H](C)[C@@H](O)[C@@H](OS(=O)(=O)O)[C@@H]4OS(=O)(=O)O)[C@@H]3OS(=O)(=O)O)[C@@H]2OS(=O)(=O)O)[C@@H]1OS(=O)(=O)O (some centres unmarked) [compound 3, fucoidan analog 3] |  | > 100 µM | > 50 µM
3 | CCCCCCCCO[C@H]1O[C@@H](C)[C@@H](O[C@@H]2O[C@@H](C)[C@@H](O[C@@H]3O[C@@H](C)[C@@H](O[C@@H]4O[C@@H](C)[C@@H](OS(=O)(=O)O)[C@@H](OS(=O)(=O)O)[C@@H]4OS(=O)(=O)O)[C@@H](OS(=O)(=O)O)[C@@H]3OS(=O)(=O)O)[C@@H](OS(=O)(=O)O)[C@@H]2OS(=O)(=O)O)[C@@H](OS(=O)(=O)O)[C@@H]1OS(=O)(=O)O [compound 10, fucoidan analog 10] |  |  | < 50 µM

Continued, in another order:

Row | Kd (galectin-4) | IC50 (MKN45) | SMILES | IC50 (NUGC4 WT)
4 |  | > 100 µM | CCCCCCCCOC1OC(C)C(O)C(OC2OC(C)C(O)C(OC3OC(C)C(O)C(OC4OC(C)C(O)C(O)C4O)C3O)C2O)C1O (centres unmarked) [compound 4, 4] | 
5 |  | > 100 µM | CCCCCCCCO[C@H]1O[C@@H](C)[C@@H](O[C@@H]2O[C@@H](C)[C@@H](O[C@@H]3O[C@@H](C)[C@@H](O[C@@H]4O[C@@H](C)[C@@H](O)[C@@H](O)[C@@H]4OS(=O)(=O)O)[C@@H](O)[C@@H]3OS(=O)(=O)O)[C@@H](O)[C@@H]2OS(=O)(=O)O)[C@@H](O)[C@@H]1OS(=O)(=O)O [compound 12, fucoidan analog 12] | > 50 µM
6 |  | > 100 µM | CCCCCCCCOC1OC(C)C(OC2OC(C)C(OC3OC(C)C(OC4OC(C)C(O)C(O)C4O)C(O)C3O)C(O)C2O)C(O)C1O (centres unmarked) [compound 13, 13] | 
